From patent publication US20030153081A1, “Viral core protein-cationic lipid-nucleic acid-delivery complexes” (priority 1999, published 2003)

Key:
differentiated ND7 cells = experiment: X-gal histochemistry, transfection of differentiated ND7 cells; type: cell-based, rat/mouse
Procedure: ND7 cells were plated in a 24 well culture plate at a density of 4×10^4 cells per well in normal growth media (+serum). Twenty-four hours later the media was replaced with differentiation media and the cells were grown for an additional 24 hrs. Three different differentiation medias were used; serum-free (−serum), normal growth media plus 1 mM cAMP (cAMP), or reduced serum (0.5%) plus 1 mM cAMP and 50 ng/ml nerve growth factor (NGF). The cells were then transfected with pCMVb complexed with either DC-Chol/DOPE alone or Mu1 plus DC-Chol/DOPE. Forty-eight hours later the cells were fixed and processed for X-Gal histochemistry and the percentage of positive cells determined.
Differentiation of ND7 cells was carried out using three previously described methods ^28, 29. ND7 cells were seeded in NGM at a density of 4×10^4 cells per well in a 24 well culture dish (Nunc). Twenty four hours later the media was replaced with either: a) NGM supplemented with 1 mM adenosine 3′:5′-cyclic monophosphate (cAMP; Sigma), or b) serum-free differentiation media (50% Hams F12, 50% DMEM, 5 μg/mL Transterrin, 250 ng/mL Insulin, 0.3 μM sodium selenite), or c) low serum nerve growth factor (NGF) media (L-15 supplemented with 2 mM glutamine, 4 g/L glucose, 4 g/L sodium bicarbonate, 10 u/mL penicillin, […] streptomycin, 0.5% FCS, 1 mM cAMP, 50 ng/mL NGF (Alomone Labs)). Differentiated ND7 cells were grown in appropriate media for 24 hrs at 37° C., 5% CO2 prior to transfection.
We also examined the ability of Mu1 to improved cationic liposome-mediated transfection in differentiated ND7s. The ND7 cell line is derived from a fusion of primary rat dorsal root ganglia (DRG) neurons and the mouse neuroblastoma N18Tg2 ^28. ND7 cells can be differentiated in a variety of manners including the withdrawal of serum, cAMP administration or exposure to reduced serum plus cAMP and nerve growth factor. Differentiation of ND7s leads to the expression of cellular properties associated with their parental nociceptive sensory neurons including a reduction in cell division and the onset of neurite outgrowth. ND7 cells were seeded in 24 well culture plates and 24 hours later differentiated. Fifteen to 20 hours following the onset of differentiation, they were transfected as above. Fifteen to 20 hours following transfection, cells were fixed and processed for X-gal histochemistry. Consistent with previous observations, transfection efficiencies varied greatly between the three differentiated groups. […] In all three conditions, however, inclusion of Mu1 polypeptide in the transfection complex improved the transduction of differentiated ND7 cells. […] The greatest improvement in efficiencies was seen, however, in the group differentiated by serum withdrawal. Here, increases of greater than 10 fold were observed.

[1] = charge ratios worked out from the sequence; type: physicochemical
Source text: Mu1 is a polycationic peptide comprised of 19 amino acids associated with the core complex of Adenovirus (Table 1) ^27, 32. We compared the DNA binding capacity of Mu1 with the mouse polyomavirus major capsid protein Vp1 by interaction with plasmid DNA in a gel retardation assay. Vp1 is a 19 amino acid peptide that contains a nuclear localization signal ^26 and contains fewer positively charged amino acids than Mu1. It was therefore predicted to have a lower DNA binding capacity.
The success of non-viral gene delivery vehicles as viable alternatives to virus vector-based systems is dependent on the development of complexes with higher and longer lasting transfection efficiencies. Since the initial identification of cationic liposomes as vehicles for the transfer of genetic material into cells there has been a large push to develop better cationic liposome formulations ^5, 7. Most attempts at improving cationic liposomes have been based on structural modifications to the molecule itself ^30. Novel formulations have been developed which have improved transfection efficiencies ^30. However, particular cell types behave differently in regards to cationic liposomal transfection. For example, we found the polypeptide Mu1 better at enhancing cationic liposome mediated transfection than Vp1. This was probably due to Mu1's greater charge ratio. While both peptides are approximately the same molecular weight, the overall charge ratio of Mu1 was more than twice that of Vp1 (Table 1). […] While a small shift in pDNA mobility was detected when 0.25 μg Mu1 was complexed to 1 μg pCMVβ, almost all of the plasmid was retained near the loading well following addition of 0.5 μg Mu1 (FIG. 1). A 0.5/1.0 (w/w) ratio of Mu1 to pCMVβ corresponds to a 1000/1 molar ratio. Each molecule of Mu1 contains 12 residues that could potentially carry a positive charge. The theoretical charge ratio of Mu1 to pCMVβ would then be 1.6 (12000 Mu1 cations to 7500 pCMVβ anions).

plasmid DNA (pCMVβ) = experiment: gel retardation assay (DNA binding analysis)
Procedure: One microgram of pCMVβ was incubated with 0 μg (lane 2), 5 μg (lane 3), 10 μg (lane 4), 15 μg (lane 5), 20 μg (lane 6), 25 μg (lane 7) and 30 μg (lane 8) of BSA for 10 minutes at room temperature in 1× HBS. Samples were then analyzed on a 1% agarose gel for altered mobility.
When ratios of 0.5 (w/w) or greater were used, however, migration of both forms of pDNA was severely retarded.
C). The Polyomavirus protein Vp1 was much less efficient at preventing pDNA migration. pCMVβ (1 μg) was incubated with 2 μg (lane 2), 4 μg (lane 3), 6 μg (lane 4), 8 μg (lane 5), 16 μg (lane 6), 32 μg (lane 7) and 0 μg (lane 8) Vp1. Only ratios of 6 or higher (protein: pDNA, w/w) caused significant retardation of supercoiled pDNA (lane 6, lower band). Also, not until a ratio of 32 (w/w) was used was there any effect on relaxed pDNA (lane 7, upper band). In all gels lane 1 corresponds to 1 Kb DNA marker (BRL).
The purified peptides were reconstituted in sterile distilled H2O at 3 mg/mL. Peptide and pDNA were complexed in 20 μL HEPES buffered saline (137 mM NaCl, 5 mM KCl, 0.75 mM Na2HPO4, 19 mM HEPES, pH 7.4) for 20 minutes at room temperature. Peptide: pDNA complexes were subsequently analyzed by agarose gel electrophoresis (1%). Control incubations for general macromolecular pDNA interactions were performed with varying amounts of molecular biology grade purified bovine serum albumin (Sigma).
Varying amounts of purified peptide were incubated at room temperature in HBS for approximately 10 minutes and then analyzed by agarose gel electrophoresis. Without the addition of peptide, supercoiled and relaxed circular plasmid DNA (pDNA) migrated in the expected manner (FIG. 1, lane 8).

H-MRRAHHRRRRASHRRMRGG-OH [Mu1]
number of positive cells (FIG. 6) (differentiated ND7 cells; all three differentiation media, Mu1 plus DC-Chol/DOPE vs DC-Chol/DOPE alone): increased the number of positive cells
increased efficiency by inclusion of Mu1 (differentiated ND7 cells; differentiated by cAMP alone): greater than 6 fold
increased efficiency by inclusion of Mu1 (differentiated ND7 cells; differentiated by serum withdrawal): greater than 10 fold
increased efficiency by inclusion of Mu1 (differentiated ND7 cells; low serum/cAMP/NGF): greater than 6 fold
Charge/AA ratio [1]: 0.63
theoretical charge ratio of Mu1 to pCMVβ ([1]; 0.5/1.0 (w/w) Mu1 to pCMVβ, 12000 cations to 7500 anions): 1.6
ratio of protein to pDNA giving slight retardation of supercoiled pDNA, relaxed form not altered (plasmid DNA (pCMVβ); 1 μg pCMVβ, 1% agarose gel): 0.25 w/w
ratio of protein to pDNA at or above which migration of both forms of pDNA was severely retarded (plasmid DNA (pCMVβ); 1 μg pCMVβ, 1x HBS, 1% agarose gel): ≥ 0.5 w/w
concentration retarding electrophoretic mobility of plasmid DNA relative to Vp1 (plasmid DNA (pCMVβ); Mu1 vs Vp1): 1/60
concentration in solution, pDNA retardation (plasmid DNA (pCMVβ); gel retardation complexes, 20 μL): 25 ng/mL
